Tests used:
clinical = settings: both, human, plasma
[1] = intranasal administration
[2] = Prediction of naloxone plasma concentrations with Excel: non-compartmental analysis on mean profiles scaled to the proposed doses; design: species or system human
[3] = Safety assessment (adverse events, clinical laboratory results, vital signs, ECGs) in the 4-way crossover study; format: in vivo, human
[4] = oral administration; cited from earlier work
[5] = Prediction of naloxone plasma concentrations with WinNonlin Modeling: compartmental pharmacokinetic model and simulation; design: species or system human; settings: 36 h
Protocol: The corresponding C max and AUCt-values are as follows (for the total time period of 36 h): […]

[6] = predicted for 0.4 mg IV, based on 1 mg IV data excluding the outlying subject
[7] = predicted for 0.4 mg IV, based on 1 mg IV data, all subjects
[8] = predicted for 1.2 mg IN, based on 8 mg IN data
[9] = predicted for 1.2 mg IN, based on 16 mg IN data
[10] = predicted for 1.6 mg IN, based on 8 mg IN data
[11] = predicted for 1.6 mg IN, based on 16 mg IN data
[12] = another subject, Day 44, normal before study drug, rated possibly related

C=CCN1CC[C@]23c4c5ccc(O)c4O[C@H]2C(=O)CC[C@@]3(O)[C@H]1C5 [naloxone]
bioavailability (clinical; other: intranasal, 8 mg): 32%
bioavailability (clinical; other: intranasal, 16 mg): 27%
bioavailability (clinical; other: sublingual, 16 mg): ~2%
peak plasma concentrations attained as early as (time after dosing) ([1]; earliest): 6 min
time to peak plasma concentrations, median ([1]; median): 18 min
AUCt [2, 6]: 3.8122 ng·h/mL
Cmax [2, 6]: 2.8817 ng/mL
AUCt [2, 7]: 4.5789 ng·h/mL
Cmax [2, 7]: 4.7352 ng/mL
AUCt [2, 8]: 3.1596 ng·h/mL
Cmax [2, 8]: 1.5352 ng/mL
AUCt [2, 9]: 2.585 ng·h/mL
Cmax [2, 9]: 1.0525 ng/mL
AUCt [2, 10]: 4.2128 ng·h/mL
Cmax [2, 10]: 2.0469 ng/mL
AUCt [2, 11]: 3.4467 ng·h/mL
Cmax [2, 11]: 1.4034 ng/mL
treatment-emergent adverse events (TEAEs) ([3]; 1 mg intravenous): 4 TEAEs
treatment-emergent adverse events (TEAEs) ([3]; 8 mg intranasal): 3 TEAEs
treatment-emergent adverse events (TEAEs) ([3]; 16 mg intranasal): 5 TEAEs
treatment-emergent adverse events (TEAEs) ([3]; 16 mg sublingual): 1 TEAE
changes in ECG ([3]; all treatments): No clinically relevant changes in ECG occurred
deaths, serious adverse events, other significant adverse events ([3]; all treatments): no deaths, serious adverse events, or other significant adverse events
markedly abnormal change in blood pressure ([3]; all treatments): one subject
markedly abnormal changes in pulse rate ([3]; all treatments): Three subjects
overall trend in abnormal vital sign changes ([3]; all treatments): No overall trend in abnormal vital sign changes was observed
markedly abnormal high SGPT value [3, 12]: 371 U/l
markedly abnormal high total bilirubin value [3, 12]: 39.33 µmol/L
markedly abnormal low potassium value [3, 12]: 3.3 mmol/L
TEAEs of vasovagal attack ([3]; intranasal application (one after 8 mg, one after 16 mg)): 2 subjects
TEAEs of vasovagal attack ([3]; intravenous bolus 1 mg): 1 subject
markedly abnormal high triglyceride value ([3]; one subject, Day 44, 4.189 mmol/l on Day -9 before study drug): 8.355 mmol/L
oral bioavailability [4]: < 3%
AUCt [5, 8]: 2.8762 ng·h/mL
Cmax [5, 8]: 1.5995 ng/mL
AUCt [5, 9]: 2.1631 ng·h/mL
Cmax [5, 9]: 0.8935 ng/mL
AUCt [5, 10]: 3.835 ng·h/mL
Cmax [5, 10]: 2.1326 ng/mL
AUCt [5, 11]: 2.8841 ng·h/mL
Cmax [5, 11]: 1.1913 ng/mL
